Measurements taken from PMC10415461 (Molecular Diversity, 2022).
Converted amounts (≈) assume the structure as drawn. Where two headings read alike, the source gives them in different places.

How the values were obtained:
[1] = test system: C. albicans (ATCC 10,231); test: Antifungal MIC, agar cup diffusion method; format: cell-based, Candida albicans; conditions: Sabouraud agar, 37 °C; for MIC: Candida albicans, ATCC 10,231, 24 h, read-out: MIC C. albicans (Fungi)
Method: The antibacterial and antifungal activities of compounds, ketone 1, 2a-j, and 5a-i were evaluated in vitro against S. aureus (ATCC 6538), P. aeruginosa (ATCC 10,145), E. coli (ATCC 8739), and C. albicans (ATCC 10,231). […] The antifungal activity of compounds 1, 2a-j, and 5a-i and ketoconazole were determined according to the agar cup diffusion method at Deraya University, Faculty of Pharmacy, Department of Microbiology.
Fungal strains and culture conditions. […] Standard strain of Candida albicans (ATCC 10,231) was obtained from microbiological resource center, Faculty of Agriculture, Ain Shams University, Cairo, Egypt. The isolate was maintained at -70 °C in Trypticase Soya Broth (TSB, Becton, and Dickinson) with 10% glycerol. Prior to inoculation, the isolate was subcultured at 37 °C for 24 h on Trypticase Soya Agar (TSA, Becton, and Dickinson) and TSB, respectively.
(§1) The plates were rotated slowly to ensure uniform distribution of the microorganisms and then allowed to solidify on a flat surface. After solidification, four equidistant and circular wells of 10 mm diameter were carefully punched using a sterile cork bore. Twofold serial dilutions of the tested compounds using DMSO were performed. An equal volume of 100µL of each dilution was applied separately to each well in three replicates using a micropipette. All plates were incubated at 37 °C for 24 h. The inhibition zones were measured, and their average was calculated.

[2] = test system: P. aeruginosa (ATCC 10,145); test: Antibacterial MIC, standard agar cup diffusion method; format: cell-based; conditions: Pseudomonas aeruginosa, ATCC 10145, 37 °C, 24 h, read-out: MIC P. aeruginosa (Gram-negative)
Method: (§2) The antibacterial and antifungal activities of compounds, ketone 1, 2a-j, and 5a-i were evaluated in vitro against S. aureus (ATCC 6538), P. aeruginosa (ATCC 10,145), E. coli (ATCC 8739), and C. albicans (ATCC 10,231). […] Standard strains of Staphylococcus aureus (ATCC 6538), Pseudomonas aeruginosa (ATCC 10,145), and Escherichia coli (ATCC 8739) were obtained from microbiological resource center, Faculty of Agriculture, Ain Shams University, Cairo, Egypt. All isolates were maintained at -70 °C in Trypticase Soya Broth (TSB, Becton, and Dickinson) with 10% glycerol. Prior to inoculation, all isolates were subcultured at 37 °C for 24 h on Trypticase Soya Agar (TSA, Becton, and Dickinson) and TSB, respectively.
as §1

[3] = test system: E. coli (ATCC 8739); test: as above; format: cell-based; conditions: Escherichia coli, ATCC8739, 37 °C, 24 h, read-out: MIC E. coli (Gram-negative)
Method: as §2, §1

[4] = test system: S. aureus (ATCC 6538); test: as above; format: cell-based, Staphylococcus aureus; conditions: 24 h; for MIC: Staphylococcus aureus, ATCC6538, 37 °C, read-out: MIC S. aureus (Gram-positive)
Method: as §2, §1

[5] = target: S. aureus DNA gyrase (Staphylococcus aureus, UniProt P0A0K8+P20831); test: Staphylococcus aureus DNA gyrase supercoiling assay; format: biochemical; conditions: supercoiling of relaxed pBR322, 37 °C, 30 min; read-out: S. aureus DNA gyrase IC50 ± SD
Method: As antibacterial agents, fluoroquinolones act by targeting and inhibiting DNA gyrase (topo II) which is an essential enzyme involved in the DNA replication process.
Staphylococcus aureus DNA gyrase was incubated at 37 °C for 30 min in a total reaction volume of 30 μl containing 40 mM HEPES. KOH (pH 7.6), 10 mM magnesium acetate, 10 mM DTT, 2 mM ATP, 500 mM potassium glutamate, 0.05 mg/ml albumin and Relaxed pBR322. DNA gyrase supercoiling reactions catalyzed by S. aureus gyrase, Stop reaction by adding 30 μL of STEB and 30 μL of chloroform/isoamyl alcohol (v:v, 24:1),and then Vortex briefly ~ 5 secs and centrifuge for 1 min. after which 20 µL of this was loaded on a 1% agarose gel that was then run at ~ 75 V for approximately 2 h. The gel was stained by (0.5 mg/L) ethidium bromide in water. Fluorescent images were taken at a wavelength of 300 nm on a UV transilluminator imaging system. The fluorescence intensity of the supercoiled plasmid reaction product was quantitated using ImagQuant software (Molecular Dynamics).

[6] = physchem; conditions: pH 7.8
Method: The n-octanol/water apparent partition coefficient at the isoelectric point (or distribution constant) was measured by using the traditional shake-flask technique. The pH of the aqueous buffer was first adjusted to isoelectric point of the compound. The n-octanol and aqueous phases were then mutually saturated before the measurement. […] The samples were agitated for 5h at water bath shaker thermostatized at 25 ± 1^◦C and 100 rpm. The concentration of the solute was determined in the aqueous and organic phases at the isoelectric point by UV spectroscopy the log p value was calculated as follows: […].

[7] = Solubility determination in phosphate buffer; format: physicochemical; conditions: aqueous buffer, thermodynamic from solid
Method: A sample of drug was accurately weighed and dissolved in 100 ml of distilled water to prepare 100 mcg/ml stock solutions. Appropriate dilution of the stock solution with phosphate buffer pH 6.8 and 7.8 was then made to prepare a working solution of 40mcg/ml.
After determination of λ max of drug, a calibration curve was constructed by preparing solutions containing different concentrations of (1–5 mcg/ml) from stock solution after appropriate dilution with phosphate buffer pH 6.8. The UV absorbance of the prepared sample solutions were measured at the predetermined λ max using phosphate buffer pH 6.8 as a blank.
Aqueous solubility of the complexes was measured as a function of pH. An excess of each derivative was placed into suitable stoppered containers. […] The samples were immersed in a water bath thermostatized at 37 ± 1^◦C and 100 rpm and periodically shaken for 48 h. Once the equilibrium was reached, the pH of the supernatant was regarded.

[8] = phosphate buffer pH 6.8, 37 °C, read-out: Solubility pH 6.8
[9] = phosphate buffer pH 7.8, 37 °C, read-out: Solubility pH 7.8

Structure (SMILES)	melting point	MIC [1]	MIC [2]	MIC [3]	MIC [4]	solubility at 48 h [7, 8]	solubility at 48 h [7, 9]	Lipophilicity (log p) [6]	MIC S. aureus (Gram-positive) ([4]; 37 °C)	IC50 [5]	MIC C. albicans (Fungi) ([1]; 24 h)	logD [6]
O=C(/C=C/c1ccc(F)cc1)c1ccc(NC(=O)N2CCN(c3cc4c(cc3F)c(=O)c(C(=O)O)cn4C3CC3)CC2)cc1 [Compound 2e]	–	2.03 to 3.89 µg/mL (≈ 3.39 to 6.5 µM)	0.96 µg/mL (≈ 1.6 µM)	0.53 µg/mL (≈ 0.885 µM)	0.89 µg/mL (≈ 1.49 µM)	160 µg/mL (≈ 267 µM)	180 µg/mL (≈ 301 µM)	–	–	3.81 ± 0.2 µM	2.03 µg/mL (≈ 3.39 µM)	0.07
O=C(/C=C/c1ccc(Br)cc1)c1ccc(NC(=O)N2CCN(c3cc4c(cc3F)c(=O)c(C(=O)O)cn4C3CC3)CC2)cc1 [Compound 2d]	–	> 100 µg/mL	7.25 µg/mL (≈ 11 µM)	4.78 µg/mL (≈ 7.25 µM)	2.65 µg/mL (≈ 4.02 µM)	140 µg/mL (≈ 212 µM)	160 µg/mL (≈ 243 µM)	–	–	–	–	0.42
COc1ccc(/C=C/C(=O)c2ccc(NC(=O)N3CCN(c4cc5c(cc4F)c(=O)c(C(=O)O)cn5C4CC4)CC3)cc2)cc1 [Compound 2g]	–	> 100 µg/mL	6.25 µg/mL (≈ 10.2 µM)	17 µg/mL (≈ 27.8 µM)	8 µg/mL (≈ 13.1 µM)	–	–	–	–	–	–	–
O=C(/C=C/c1ccccc1)c1ccc(NC(=O)N2CCN(c3cc4c(cc3F)c(=O)c(C(=O)O)cn4C3CC3)CC2)cc1 [Compound 2a]	–	> 100 µg/mL	1.12 µg/mL (≈ 1.93 µM)	0.64 µg/mL (≈ 1.1 µM)	0.74 µg/mL (≈ 1.27 µM)	210 µg/mL (≈ 362 µM)	150 µg/mL (≈ 258 µM)	–	–	3.47 ± 0.18 µM	–	0.24
Cc1ccc(/C=C/C(=O)c2ccc(NC(=O)N3CCN(c4cc5c(cc4F)c(=O)c(C(=O)O)cn5C4CC4)CC3)cc2)cc1 [Compound 2f]	–	> 100 µg/mL	3.7 µg/mL (≈ 6.22 µM)	9.33 µg/mL (≈ 15.7 µM)	0.94 µg/mL (≈ 1.58 µM)	160 µg/mL (≈ 269 µM)	170 µg/mL (≈ 286 µM)	–	–	1.77 ± 0.09 µM	–	0.4

The next lines start with results.

melting point	MIC [1]	MIC [2]	MIC [3]	MIC [4]	solubility at 48 h [7, 8]	solubility at 48 h [7, 9]	Lipophilicity (log p) [6]	MIC S. aureus (Gram-positive) ([4]; 37 °C)	Structure (SMILES)	IC50 [5]	MIC C. albicans (Fungi) ([1]; 24 h)	logD [6]
284 to 285 °C	36.1 µg/mL (≈ 53.2 µM)	12.3 µg/mL (≈ 18.1 µM)	42.2 µg/mL (≈ 62.1 µM)	8.14 µg/mL (≈ 12 µM)	–	–	–	–	N#Cc1c(-c2ccc(Br)cc2)nc(SCC(=O)N2CCN(c3cc4c(cc3F)c(=O)c(C(=O)O)cn4C3CC3)CC2)[nH]c1=O [Compound 5d, 7-(4-(2-((4-(4-Bromophenyl)-5-cyano-6-oxo-1,6-dihydropyrimidin-2-yl)thio)acetyl)piperazin-1-yl)-1-cyclopropyl-6-fluoro-4-oxo-1,4-dihydroquinoline-3-carboxylic acid]	–	–	–
–	> 100 µg/mL	17 µg/mL (≈ 26.5 µM)	4.13 µg/mL (≈ 6.45 µM)	6.3 µg/mL (≈ 9.83 µM)	150 µg/mL (≈ 234 µM)	190 µg/mL (≈ 297 µM)	− 0.06	–	COc1ccc(/C=C/C(=O)c2ccc(NC(=O)N3CCN(c4cc5c(cc4F)c(=O)c(C(=O)O)cn5C4CC4)CC3)cc2)cc1OC [Compound 2i]	–	–	–
–	84.2 µg/mL (≈ 135 µM)	3.12 µg/mL (≈ 5.01 µM)	5.25 µg/mL (≈ 8.42 µM)	1.2 µg/mL (≈ 1.92 µM)	680 µg/mL (≈ 1090 µM)	780 µg/mL (≈ 1250 µM)	− 0.21	–	CN(C)c1ccc(/C=C/C(=O)c2ccc(NC(=O)N3CCN(c4cc5c(cc4F)c(=O)c(C(=O)O)cn5C4CC4)CC3)cc2)cc1 [Compound 2h]	–	–	–
–	> 100 µg/mL	1.2 µg/mL (≈ 2.44 µM)	0.6 µg/mL (≈ 1.22 µM)	0.7 µg/mL (≈ 1.42 µM)	–	–	–	0.70 µg/mL (≈ 1.42 µM)	CC(=O)c1ccc(NC(=O)N2CCN(c3cc4c(cc3F)c(=O)c(C(=O)O)cn4C3CC3)CC2)cc1 [Compound 1]	–	–	–
–	2.6 µg/mL (≈ 4.89 µM)	–	–	–	–	–	–	–	CC(=O)N1CCN(c2ccc(OCC3COC(Cn4ccnc4)(c4ccc(Cl)cc4Cl)O3)cc2)CC1 (centres unmarked) [Ketoconazole, reference compound]	–	–	–
–	> 100 µg/mL	4.2 µg/mL (≈ 6.26 µM)	5.13 µg/mL (≈ 7.65 µM)	1.48 µg/mL (≈ 2.21 µM)	180 µg/mL (≈ 268 µM)	150 µg/mL (≈ 224 µM)	–	–	COc1cc(/C=C/C(=O)c2ccc(NC(=O)N3CCN(c4cc5c(cc4F)c(=O)c(C(=O)O)cn5C4CC4)CC3)cc2)cc(OC)c1OC [Compound 2j]	–	–	0.34
